Data published in patent US11918550B2, “Sensitization of cancer cells to differentiation therapy with mitochondrial uncoupler niclosamide ethanolamine” (The Board of Trustees of the Leland Stanford Junior …, priority 2020, dated 2024).

Tests used:
Assay type in all cases: cell-based
HIF2α = assay: Western blot of nuclear HIF2α under normoxia or hypoxia; conditions: SK-N-BE(2), 2 or 4 μM NEN, 3.5 mM α-KG
Method: Protein extraction and immunoblot. […] Cell lysate was centrifuged at 3000 rpm for 3 min at 4° C. The supernatant containing cytosolic proteins was transferred to a different tube. […] Then the solution was sonicated at 4° C. for 6 cycles (1 cycle=30 s sonication and 30 s cooldown with “High” energy intensity) using a Bioruptor® Plus sonication (Diagenode, UCD-300). After sonication, the solution was centrifuged at 15,000 rpm for 10 minutes. The supernatant was kept as nuclear extraction. […] After blocking in 5% non-fat milk for 30 minutes at room temperature (RT), the primary antibody was added for incubation overnight at 4° C.

SK-N-BE(2) cells [1] = assay: U-13C-glutamine isotope tracing (LC/MS)
Method: (§1) Metabolic analysis. For the metabolomics and isotope tracing analysis in vitro, cells were washed with cold PBS, lysed in 80% Ultra LC-MS acetonitrile on ice for 15 minutes, centrifuged at 20,000 g for 10 minutes at 4° C., and supernatant was subjected to mass spectrometry analysis. For the metabolomics analysis in vivo, 10-20 mg tissue were cut off on ice, rinsed if necessary to remove blood, and place in a 2 ml round-bottom cryovial. The tissues were homogenized by 3 times 10 s on/off bursts homogenization in 1 ml 80% methanol on dry ice. Transfer the homogenate to an Eppendorf tube and keep on liquid nitrogen while processing the remaining samples. Incubated all the samples in −80° C. for 30 minutes. After incubation, vortexed the samples for 5 seconds. Then centrifuged the samples at 20,000 g for 10 minutes at 4° C., and supernatant was subjected to mass spectrometry analysis. Resuspend the remaining cellular pellet in 100 ul protein lysis buffer and determine the protein concentration. Then calculate the total protein content per sample.
(§2) Liquid chromatography was performed using an Agilent 1290 Infinity LC system (Agilent, Santa Clara, US) coupled to a Q-TOF 6545 mass spectrometer (Agilent, Santa Clara, US). A hydrophilic interaction chromatography method (HILIC) with a BEH amide column (100×2.1 mm i.d., 1.7 μm; Waters) was used for compound separation at 35° C. with a flow rate of 0.3 ml/minutes. The mobile phase A consisted of 25 mM ammonium acetate and 25 mM ammonium hydroxide in water and mobile phase B was acetonitrile. The gradient elution was 0-1 minute, 85% B; 1-12 minutes, 85% B→65% B; 12-12.2 minutes, 65% B→40% B; 12.2-15 minutes, 40% B. After the gradient, the column was re-equilibrated at 85% B for 5 minutes. The overall runtime was 20 minutes, and the injection volume was 5 μL. Agilent Q-TOF was operated in negative mode and the relevant parameters were as listed: ion spray voltage, 3500 V; nozzle voltage, 1000 V; fragmentor voltage, 125 V; drying gas flow, 11 L/minutes; capillary temperature, 325° C., drying gas temperature, 350° C.; and nebulizer pressure, 40 psi. A full scan range was set at 50 to 1600 (m/z). The reference mass was 119.0363 and 980.0164. The acquisition rate was 2 spectra/s. Targeted analysis, isotopologues extraction and natural isotope abundance correction were performed by Agilent Profinder B.10.00 (Agilent Technologies).
(§3) Stable isotope tracing analysis. […] Then the culture medium was changed to DMEM/F-12, no glutamine (Gibco, 21331020) with 4 mM U-^13C5-glutamine (Cambridge Isotope Laboratories, CLM-1822-H) and 10% dialyzed FBS (Gibco, 26400044) under same treatment condition as above for 2 h. […] Then changed the medium to DMEM/F-12, no glutamine (Gibco, 21331020) with 4 mM 1-^13C-glutamine (Cambridge Isotope Laboratories, CLM-CLM-3612-PK) and 10% dialyzed FBS (Gibco, 26400044) for 2 h with same treatment under normoxia or hypoxia for 2 h.

NB16 cells [2] = assay: U-13C-glutamine isotope tracing (LC/MS)
Method: as §1, §2, §3

SK-N-BE(2) cells [3] = assay: Relative intracellular metabolite levels by LC/MS
Method: as §1, §2

NB16 cells [4] = assay: Relative intracellular metabolite levels by LC/MS
Method: as §1, §2

[5] = system: HIF target genes such as pdk1, pdk3, pgk1 and Idha; assay: RT-PCR of HIF target genes; conditions: SK-N-BE(2), 2 or 4 μM NEN, normoxia or hypoxia
Method: RNA isolation, reverse transcription, and real-time PCR. The procedure was performed as described before. Briefly, total RNA was isolated from 60 mm tissue culture plates according to the TRIzol Reagent (Invitrogen, 15596026) protocol. 3 μg of total RNA was used in the reverse transcription reaction using the iScript cDNA synthesis kit (Bio-Rad). Quantitative PCR amplification was performed on the Prism 7900 Sequence Detection System (Applied Biosystems) using Taqman Gene Expression Assays (Applied Biosystems). Gene expression level were normalized to 18S rRNA.

[6] = system: RA-resistant neuroblastoma cells; assay: Cell proliferation (cell counting), NEN with RA; conditions: NEN combined with RA, 3 days
Method: Cell proliferation and clonogenic assay. 2×10^4 cells were seeded in 12 well-plate and allowed to attached overnight. […] After treatment, cells were counted using hemocytometer.

[7] = 1 μM NEN 3 h pretreatment then 2 h label
[8] = NB16, 1 μM NEN 3 h pretreatment then 2 h label
[9] = SK-N-BE(2) cells, 1 μM NEN 2 h or 5 h vs DMSO
[10] = SK-N-BE(2) cells, 1 μM NEN 5 h vs DMSO
[11] = SK-N-BE(2), 1 μM NEN under hypoxia 3 h or 6 h

Structure (SMILES): O=C(Nc1ccc([N+](=O)[O-])cc1Cl)c1cc(Cl)ccc1O [NEN, 5-chloro-N-(2-chloro-4-nitrophenyl)-2-hydroxybenzamide compound with 2-aminoethanol (1:1)]
- inhibition of the accumulation of HIF2a protein (HIF2α): inhibited
- labelling abundance of m+2 (2nd cycle) and m+½ (3rd cycle) aspartate (SK-N-BE(2) cells [1]; [7]): significantly increased
- labelling abundance of m+2 (2nd cycle) and m+½ (3rd cycle) succinate (SK-N-BE(2) cells [1]; [7]): significantly increased
- labelling percentage of m+3 (2nd cycle) α-KG (SK-N-BE(2) cells [1]; [7]): significantly increased
- labelling percentage of m+½ (3rd cycle) α-KG (SK-N-BE(2) cells [1]; [7]): significantly increased
- m+5 labelling abundance of 2-HG (SK-N-BE(2) cells [1]; [7]): significantly decreased
- m+5 α-KG labelling from U-13C-glutamine (SK-N-BE(2) cells [1]; [7]): no significant increase
- reductive carboxylation flux (labelling fraction of m+5 citrate, m+3 fumarate, m+3 malate) (SK-N-BE(2) cells [1]; U-13C-glutamine, 1 μM NEN, normoxia): significantly inhibited
- m+4 aspartate (NB16 cells [2]; [8]): increased
- m+4 succinate (NB16 cells [2]; [8]): increased
- m+5 2-HG labelling (NB16 cells [2]; [8]): no significant reduction
- m+5 and m+3 labeling of α-KG from glutamine (NB16 cells [2]; [8]): increased
- reductive carboxylation flux (labelling fraction of m+5 citrate, m+3 fumarate, m+3 malate) (NB16 cells [2]; NB16, U-13C-glutamine, 1 μM NEN, normoxia): significantly inhibited
- aspartate level (SK-N-BE(2) cells [3]; [9]): accumulated
- citrate level (SK-N-BE(2) cells [3]; [9]): not affected
- fumarate level (SK-N-BE(2) cells [3]; [9]): no significant increase
- intracellular α-KG levels (SK-N-BE(2) cells [3]; [9]): increased significantly
- malate level (SK-N-BE(2) cells [3]; [9]): no significant increase
- succinate level (SK-N-BE(2) cells [3]; [9]): accumulated
- intracellular glutamate level (SK-N-BE(2) cells [3]; [10]): significantly reduced
- intracellular glutamine level (SK-N-BE(2) cells [3]; [10]): significantly reduced
- 2-HG levels under hypoxia (SK-N-BE(2) cells [3]; [11]): significantly reduced
- α-KG level under hypoxia (SK-N-BE(2) cells [3]; [11]): partially restored
- aspartate level (NB16 cells [4]; 1 μM NEN 2 h or 5 h vs DMSO): accumulated
- citrate level (NB16 cells [4]; 1 μM NEN 2 h or 5 h vs DMSO): not affected
- fumarate level (NB16 cells [4]; 1 μM NEN 2 h or 5 h vs DMSO): no significant increase
- intracellular α-KG levels (NB16 cells [4]; 1 μM NEN 2 h or 5 h vs DMSO): increased significantly
- malate level (NB16 cells [4]; 1 μM NEN 2 h or 5 h vs DMSO): no significant increase
- succinate level (NB16 cells [4]; 1 μM NEN 2 h or 5 h vs DMSO): accumulated
- intracellular glutamate level (NB16 cells [4]; 1 μM NEN 5 h vs DMSO): significantly reduced
- intracellular glutamine level (NB16 cells [4]; 1 μM NEN 5 h vs DMSO): significantly reduced
- expression of HIF target genes such as pdk1, pdk3, pgk1 and Idha [5]: reduced
- RA-dependent proliferation arrest effect [6]: enhanced
